Values after ≈ are worked out from the molar mass of the structure shown.
Key:
Format in all cases: functional
[1] = tested on: Escherichia coli; assay: Antibacterial activity against Escherichia coli 700 expressing TolC after 16 to 20 hrs by broth microdilution method
[2] = tested on: Stenotrophomonas maltophilia; assay: Antibacterial activity against Stenotrophomonas maltophilia ATCC 13637 after 16 to 20 hrs by broth microdilution method
[3] = tested on: Klebsiella pneumoniae; assay: Antibacterial activity against Klebsiella pneumoniae 13882 after 16 to 20 hrs by broth microdilution method
[4] = tested on: Burkholderia cepacia; assay: Antibacterial activity against Burkholderia cepacia 39277 after 16 to 20 hrs by broth microdilution method
[5] = tested on: Bacillus anthracis; assay: Antibacterial activity against Bacillus anthracis Sterne after 16 to 20 hrs by broth microdilution method
[6] = tested on: Staphylococcus aureus; assay: Antibacterial activity against methicillin-resistant Staphylococcus aureus 1094 after 16 to 20 hrs by broth microdilution method
[7] = tested on: Acinetobacter baumannii; assay: Antibacterial activity against Acinetobacter baumannii ATCC 19606 after 16 to 20 hrs by broth microdilution method; settings: ATCC 19606 = CIP 70.34 = JCM 6841
[8] = tested on: Enterococcus faecalis; assay: Antibacterial activity against Enterococcus faecalis ATCC 29212 after 16 to 20 hrs by broth microdilution method
[9] = tested on: Staphylococcus aureus; assay: Antibacterial activity against Staphylococcus aureus ATCC 25923 after 16 to 20 hrs by broth microdilution method
[10] = tested on: Bacillus subtilis; assay: Antibacterial activity against Bacillus subtilis BD54 after 16 to 20 hrs by broth microdilution method
[11] = tested on: Pseudomonas aeruginosa; assay: Antibacterial activity against Pseudomonas aeruginosa PAO1 after 16 to 20 hrs by broth microdilution method
[12] = tested on: Escherichia coli; assay: Antibacterial activity against TolC deficient Escherichia coli 701 after 16 to 20 hrs by broth microdilution method
[13] = tested on: Burkholderia cepacia; assay: Antibacterial activity against Burkholderia cepacia 55792 after 16 to 20 hrs by broth microdilution method
[14] = tested on: Klebsiella pneumoniae; assay: Antibacterial activity against Klebsiella pneumoniae 700603 after 16 to 20 hrs by broth microdilution method
[15] = tested on: Enterococcus faecalis; assay: Antibacterial activity against vancomycin-resistant Enterococcus faecalis ATCC 51575 after 16 to 20 hrs by broth microdilution method
[16] = tested on: Pseudomonas aeruginosa; assay: Antibacterial activity against DmexAB-oprM deletion mutant of Pseudomonas aeruginosa PAO1 after 16 to 20 hrs by broth microdilution method
[17] = Bacillus subtilis, BD54, read-out: MIC

| Compound | MIC [1] | MIC [2] | MIC [3] | MIC [4] | MIC [5] | MIC [6] | MIC [7] | MIC [8] | MIC [9] | MIC [10, 17] | MIC [11] | MIC [12] | MIC [13] | MIC [14] | MIC [15] | MIC [10] | MIC [16] |
| --- | --- | --- | --- | --- | --- | --- | --- | --- | --- | --- | --- | --- | --- | --- | --- | --- | --- |
| CC(=O)OC(C(=O)Cc1c[nH]c2ccccc12)C(C)C (centres undefined) | > 80 µg/mL | > 80 µg/mL | > 80 µg/mL | > 80 µg/mL | > 80 µg/mL | > 80 µg/mL | > 80 µg/mL | > 80 µg/mL | > 80 µg/mL | > 80 µg/mL | > 80 µg/mL | > 80 µg/mL | > 80 µg/mL | > 80 µg/mL | > 80 µg/mL |  |  |
| CC(=O)OC(Cc1c[nH]c2ccccc12)C(=O)C(C)C (centres undefined) | > 80 µg/mL | > 80 µg/mL | > 80 µg/mL | > 80 µg/mL | > 80 µg/mL | > 80 µg/mL | > 80 µg/mL | > 80 µg/mL | > 90 µg/mL | > 80 µg/mL | > 80 µg/mL | > 80 µg/mL | > 80 µg/mL | > 80 µg/mL | > 80 µg/mL |  |  |
| CC(C)C(O)C(=O)Cc1c[nH]c2ccccc12 (single isomer, unassigned; (+)) |  |  |  | > 80 µg/mL |  |  |  | > 80 µg/mL |  |  |  |  | > 80 µg/mL |  | > 80 µg/mL | >40 µg/mL |  |
| CC(C)C(=O)C(O)Cc1c[nH]c2ccccc12 (single isomer, unassigned; (+)) | > 80 µg/mL | > 80 µg/mL | > 80 µg/mL | > 80 µg/mL | > 80 µg/mL | > 80 µg/mL | > 80 µg/mL | > 80 µg/mL | > 80 µg/mL | > 80 µg/mL | > 80 µg/mL | > 80 µg/mL | > 80 µg/mL | > 80 µg/mL | > 80 µg/mL |  |  |
| CC(C)C(O)C(=O)Cc1c[nH]c2ccccc12 (single isomer, unassigned; (-)) | > 80 µg/mL | > 80 µg/mL | > 80 µg/mL |  | > 80 µg/mL | > 80 µg/mL | > 80 µg/mL |  | > 80 µg/mL | > 80 µg/mL | > 80 µg/mL | > 80 µg/mL |  | > 80 µg/mL |  |  |  |
| O=C(O)c1cn(C2CC2)c2cc(N3CCNCC3)c(F)cc2c1=O [CIPROFLOXACIN] |  | 0.313 µg/mL (≈ 0.945 µM) | 0.078 µg/mL (≈ 0.235 µM) | 0.078 µg/mL (≈ 0.235 µM) |  | 20 µg/mL (≈ 60.4 µM) | 1.25 µg/mL (≈ 3.77 µM) | 1.9 µg/mL (≈ 5.73 µM) | 469 µg/mL (≈ 1420 µM) | 0.078 µg/mL (≈ 0.235 µM) | 0.313 µg/mL (≈ 0.945 µM) |  | 0.039 µg/mL (≈ 0.118 µM) | 0.313 µg/mL (≈ 0.945 µM) | 0.625 µg/mL (≈ 1.89 µM) |  | 20 µg/mL (≈ 60.4 µM) |

— ChEMBL document CHEMBL1268874, “A concise, total synthesis and antibacterial evaluation of 2-hydroxy-1-(1H-indol-3-yl)-4-methylpentan-3-one” (2010)
